Measured values from BindingDB's records for doi:10.3109/14756366.2010.491794 (Nanchang University School of Pharmaceutical Science, 2011).

These compounds were tested against Cannabinoid receptor 1 (Cricetulus griseus, UniProt Q99NU1) (assay: CB1 Receptor Binding Assay (In Vitro)).
Procedure: The target compounds were evaluated using a binding assay towards the CB1 receptor expressed on the membranes of Chinese hamster ovarian (CHO) cells. […] The potent synthetic cannabinoid agonist, [3H]-CP55940, was used as a radioligand (Figure 1). The CHO cells were incubated in 96-well microtiter plates. Various concentrations of the synthesised cannabinoid ligands were added and incubated for 10 min at 37°C. […] The cells were lysed and scintillation fluid was added. […] There were three parallels in the tests.

Sequence of Cannabinoid receptor 1 (Q99NU1 whole entry): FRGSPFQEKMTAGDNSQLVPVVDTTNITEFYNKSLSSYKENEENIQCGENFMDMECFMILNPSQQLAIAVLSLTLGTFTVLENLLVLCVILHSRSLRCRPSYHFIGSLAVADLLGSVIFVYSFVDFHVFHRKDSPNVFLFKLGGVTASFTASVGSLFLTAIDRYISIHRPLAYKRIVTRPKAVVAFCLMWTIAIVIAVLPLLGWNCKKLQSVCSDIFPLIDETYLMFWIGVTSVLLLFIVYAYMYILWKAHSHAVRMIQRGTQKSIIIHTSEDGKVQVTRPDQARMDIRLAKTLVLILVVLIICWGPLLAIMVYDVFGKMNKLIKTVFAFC

First: Cc1c(C(=O)NCCCN2CCCC2)nn(-c2ccc(Cl)cc2Cl)c1-c1ccc(Cl)cc1 [5-(4-Chlorophenyl)-1-(2,4-dichlorophenyl)-4-methyl-N-(3-(pyrrolidin-1-yl)propyl)-1H-pyrazole-3-carboxamide (12e)]
Second: Cc1c(C(=O)NCCCCN2CCCCC2)nn(-c2ccc(Cl)cc2Cl)c1-c1ccc(Cl)cc1 [5-(4-Chlorophenyl)-1-(2,4-dichlorophenyl)-4-methyl-N-(4-(piperidin-1-yl)butyl)-1H-pyrazole-3-carboxamide (12f)]
The IC50 of the first is lower: 672 nM for the first, over 1000 nM for the second.

First: Cc1c(C(=O)NN2CCN(C)CC2)nn(-c2ccc(Cl)cc2Cl)c1-c1ccc(Cl)cc1 [5-(4-Chlorophenyl)-1-(2,4-dichlorophenyl)-4-methyl-N-(4-methylpiperazin-1-yl)-1H-pyrazole-3-carboxamide (12a)]
Second: Cc1c(C(=O)NCCCN2CCOCC2)nn(-c2ccc(Cl)cc2Cl)c1-c1ccc(Cl)cc1 [5-(4-Chlorophenyl)-1-(2,4-dichlorophenyl)-4-methyl-N-[3-(4-morpholinyl)propyl]-1H-pyrazole-3-carboxamide (12b)]
The IC50 of the first is 2.6-fold lower: 173 nM for the first, 455 nM for the second.

First: COc1ccc2ccc(CCNC(=O)c3nn(-c4ccc(Cl)cc4Cl)c(-c4ccc(Cl)cc4)c3C)cc2c1 [5-(4-Chlorophenyl)-1-(2,4-dichlorophenyl)-4-methyl-N-[2-(7-methoxynaphthalen-2-yl)ethyl]-1H-pyrazol-3-carboxamide (12g)]
Second: CCN(CC)CCCNC(=O)c1nn(-c2ccc(Cl)cc2Cl)c(-c2ccc(Cl)cc2)c1C [5-(4-Chlorophenyl)-1-(2,4-dichlorophenyl)-4-methyl-N-[3-(N,N-diethylamino)propyl]-1H-pyrazol-3-carboxamide (12c)]
The IC50 of the first is lower: 398 nM for the first, over 1000 nM for the second. The first is the more potent here.

First: Cc1c(C(=O)NC2CCC(C)CC2)nn(-c2ccccn2)c1-c1ccc(Cl)cc1 (centres undefined) [5-(4-Chlorophenyl)-4-methyl-1-(pyridin-2-yl)-N-(4-methylcyclohexyl)-1H-pyrazole-3-carboxamide (12j)]
Second: Cc1c(C(=O)NC2CCC(C)CC2)nn(-c2ccc(Cl)cc2Cl)c1-c1ccc(Cl)cc1 (centres undefined) [5-(4-chlorophenyl)-1-(2,4-dichlorophenyl)-4-methyl-N-(4-methylcyclohexyl)-1H-pyrazol-3-carboxamide (12d)]
The IC50 of the first is 140-fold higher: 612 nM for the first, 4.31 nM for the second.

`Cc1c(C(=O)NN2CCCCCC2)nn(-c2ccccn2)c1-c1ccc(Cl)cc1` [5-(4-Chlorophenyl)-4-methyl-1-(pyridin-2-yl)-N-(azepan-1-yl)-1H-pyrazole-3-carboxamide (12i)] and `Cc1c(C(=O)NN2CCCCC2)nn(-c2ccccn2)c1-c1ccc(Cl)cc1` [5-(4-Chlorophenyl)-4-methyl-1-(pyridin-2-yl)-N-(piperidin-1-yl)-1H-pyrazole-3-carboxamide (12h)] are within 1.5-fold of each other in IC50: 382 nM for the first, 510 nM for the second.

`Cc1c(C(=O)NC2CCC(C)CC2)nn(-c2ccc(C(F)(F)F)cc2)c1-c1ccc(Cl)cc1` (centres undefined) [5-(4-Chlorophenyl)-4-methyl-1-[4-(trifluoromethyl)phenyl]-N-(4-methylcyclohexyl)-1H-pyrazole-3-carboxamide (12m)] and `Cc1c(C(=O)NN2CCCCC2)nn(-c2ccc(C(F)(F)F)cc2)c1-c1ccc(Cl)cc1` [5-(4-Chlorophenyl)-4-methyl-1-[4-(trifluoromethyl)phenyl]-N-(piperidin-1-yl)-1H-pyrazole-3-carboxamide (12k)] are within 1.5-fold of each other in IC50: 79 nM for the first, 93.4 nM for the second.

First: Cc1c(C(=O)NN2CCCCCC2)nn(-c2ccc(C(F)(F)F)cc2)c1-c1ccc(Cl)cc1 [5-(4-Chlorophenyl)-4-methyl-1-[4-(trifluoromethyl)phenyl]-N-(azepan-1-yl)-1H-pyrazole-3-carboxamide (12l)]
Second: Cc1c(CN(CC(=O)O)Cc2nn(-c3ccc(Cl)cc3Cl)c(-c3ccc(Cl)cc3)c2C)nn(-c2ccc(Cl)cc2Cl)c1-c1ccc(Cl)cc1 [[2-Bis-[[5-(4-chlorophenyl)-1-(2,4-dichlorophenyl)-4-methyl-1H-pyrazol-3-yl]methyl]amino] acetic acid (13c)]
The IC50 of the first is 5.2-fold lower: 98.3 nM for the first, 516 nM for the second. The first is the more potent here.
